Experimental data from patent US6436963B1 (priority 1998, dated 2002).

Legend:
Septoria tritici = conditions: wheat (cultivar Monon), sprayed to run off at 100 ppm, inoculated after 24 hours
Puccinia recondita = assay: Brown Rust (PUCCRT), protectant spray test on wheat seedlings; type: in vivo; conditions: wheat (cultivar Monon), sprayed to run off at 100 ppm, inoculated after 24 hours
Phytophthora infestans = type: in vivo; conditions: tomatoes (cultivar Rutgers), sprayed to run off at 100 ppm, inoculated after 24 hours
Erysiphe graminis = assay: Powdery Mildew of Wheat (ERYSGT), protectant spray test on wheat seedlings; type: in vivo; conditions: wheat (cultivar Monon), sprayed to run off at 100 ppm, inoculated after 24 hours

CNC(=O)C(=NOC)c1ccccc1COc1ncc(C(O)c2ccc(OC(F)(F)F)cc2)cc1Cl (racemic) [Example 16]
SEPTTR control of plant disease (Septoria tritici): ++ (++ = 75-100% control of plant disease) | PUCCRT control of plant disease (Puccinia recondita): ++ (++ = 75-100% control of plant disease) | PHYTIN control of plant disease (Phytophthora infestans): − (− = 0-24% control of plant disease) | ERYSGT control of plant disease (Erysiphe graminis): ++ (++ = 75-100% control of plant disease)

CNC(=O)C(=NOC)c1ccccc1COc1ncc(C(O)c2ccc(F)cc2)cc1C (racemic) [Example 14]
SEPTTR control of plant disease (Septoria tritici): ++ (++ = 75-100% control of plant disease) | PUCCRT control of plant disease (Puccinia recondita): ++ (++ = 75-100% control of plant disease) | PHYTIN control of plant disease (Phytophthora infestans): ++ (++ = 75-100% control of plant disease) | ERYSGT control of plant disease (Erysiphe graminis): ++ (++ = 75-100% control of plant disease)

CNC(=O)C(=NOC)c1ccccc1COc1ncc(C(O)c2ccc(Cl)cc2)cc1C (racemic) [Example 15]
SEPTTR control of plant disease (Septoria tritici): ++ (++ = 75-100% control of plant disease) | PUCCRT control of plant disease (Puccinia recondita): ++ (++ = 75-100% control of plant disease) | PHYTIN control of plant disease (Phytophthora infestans): ++ (++ = 75-100% control of plant disease) | ERYSGT control of plant disease (Erysiphe graminis): ++ (++ = 75-100% control of plant disease)

CNC(=O)C(=NOC)c1ccccc1COc1ncc(C(O)c2ccccc2)cc1C (racemic) [Example 13]
SEPTTR control of plant disease (Septoria tritici): ++ (++ = 75-100% control of plant disease) | PUCCRT control of plant disease (Puccinia recondita): ++ (++ = 75-100% control of plant disease) | PHYTIN control of plant disease (Phytophthora infestans): ++ (++ = 75-100% control of plant disease) | ERYSGT control of plant disease (Erysiphe graminis): ++ (++ = 75-100% control of plant disease)
